These results are taken from patent publication US4564619A, “Carbostyril derivative” (Otsuka Pharmaceutical Co., Ltd., priority 1982, dated 1986).

A short description of assay [1]: Change of blood pressure, intravenous administration, anesthetized dog. Set-up: unit not given here. To be noted: femoral artery. Type of assay: in vivo. The method, then:
(§1) The change of blood flow in coronary artery and the change of blood pressure were measured by a method according to Yakura et al., [Japan Journal of Pharmacology, Vol. 57, pages 380-391 (1961)] and according to Taira, et al. [Clin. Exp. Pharmacol. Physiol., Vol. 6, pages 301-316, (1976)].
(§2) An adult bastard dog of either sex weighing 8-13 kg was anesthetized with sodium pentobarbital at the rate of 30 mg/kg by intraveneous administration, then the dog was fixed in supination and was theracotomized under a condition of forced breathing. After another intraveneous administration of sodium heparin at the rate of 500 U/kg, 100 U/kg per hour, the dog was subjected to the following experiments.
(§3) (2) Intraveneous administration
(§4) Morawitz's cannula was cannulated to the coronary sinus venosus through the auricula dextra cordis, and the blood in vein was circulated to the right carotid. The blood flow was measured by an electromagnetic blood flow meter equipped with a blood flow observation probe in the extracorporeal circulation path of the vein. The systolic force was measured by a systolometer (pick-up) placed at the left ventricle of heart, the blood pressure was measured from the femoral artery, and the heart rate was measured from the pulse. A compound to be tested was administered through the cannula being cannulated in femoral vein. The increased amount of the blood flow in coronary artery after the administration of the test compound is shown in Table 4, also the change of blood pressure is shown in Table 5.

In assay [2] the test system is collagen-induced aggregation in rabbit platelets. Put plainly: Inhibition of collagen-induced platelet aggregation in rabbit platelet rich plasma. Type of assay: cell-based. To be noted: Oryctolagus cuniculus, read-out: Inhibition rate of collagen-induced aggregation; for inhibition at 100 µM (stock): Concentration of the test compound solution 10^-4 mole; for inhibition at 10 µM (stock): Concentration of the test compound solution 10^-5 mole. The method, then: (§5) The platelet aggregation inhibitory effect was measured by using a Platelet Aggregation Tracer Model PAT-6M (manufactured by Nikoh Bio-Science Co., Ltd.) by a method according to Kimura, et al., [IGAKU-NO-AYUMI (Progress in Medicine), Vol. 114, No. 9, pp. 718-727, Aug. 30, 1980, and Nature, pp. 927-929, 1962].
(§6) The blood sample used for the test was a 1:9 (by volume) mixture of "3.8%-CITRATE"® (a registered trademark for 3.8%-sodium citrate, manufactured by Green Cross Corp.) and whole blood collected from rabbits. Said sample was subjected to 10-minute centrifugal separation at 1,000 r.p.m. (200xG) to obtain a platelet rich plasma (PRP). The PRP thus obtained was separated, and the remaining blood sample was further subjected to 15-minute centrifugal separation at 3,000 r.p.m. (2,000xG) to obtain a platelet poor plasma (PPP).
(§7) The number of platelets in the PRP was counted by the Brecher-Clonkite Method, and the PRP was diluted with the PPP to prepare a PRP sample with a platelet concentration of 600,000/microliter to prepare for an adenosine diphosphate (ADP)-induced aggregation test, and a collagen-induced aggregation test. 0.2 Milliliter of the PRP sample was added to 2 microliters of a solution of a test compound of predetermined concentration and this mixture was placed in a 37° C. thermostat for one minute. Then 20 microliters of an ADP or collagen solution was added to the mixture. In this test, the ADP solution was prepared by adjustment to a concentration of 7.5×10^-5 M by using Auren-Beronal buffer solution (pH 7.35). Further, the collagen solution was prepared by adjustment to a concentration of 200 micrograms/ml by using collagen reagent of "Holm"® (manufactured by Hormon-Chemie Munchen, GmbH.) which was diluted wih a physiological saline solution.
(§8) The transmittance of the resultant test mixture was determined and the change of transmittance was recorded by using the aggregometer at a stirrer speed of 1,100 r.p.m.
(§9) The platelet aggregation inhibitory effect of the test compound was measured in terms of inhibition rate (%) with respect to the aggregation rate of the controls. The aggregation rate was calculated from the following formula.
(§10) Aggregation rate=[(c-a)/(b-a)]×100
(§11) The percent inhibition is calculated from the following formula.
(§12) Inhibition rate (%)=[(A-B)/A]×100
(§13) The inhibitory effect of the test compounds on collagen-induced aggregation in rabbit platelets is shown in Table 1, similarly such effect on ADP-induced aggregation in rabbit platelets is shown in Table 2.

For assay [3], the system named is ADP-induced aggregation in rabbit platelets. Put plainly: Inhibition of ADP-induced platelet aggregation in rabbit platelet rich plasma. Type of assay: cell-based. Conditions: Oryctolagus cuniculus, read-out: Inhibition rate of ADP-induced aggregation; for inhibition at 100 µM (stock): Concentration of the test compound solution 10^-4 mole. The method, then: as §5, §6, §7, §8, §9, §10, §11, §12, §13

Assay [4] concerns coronary artery. Put plainly: Increased amount of the blood flow in coronary artery, intravenous administration, anesthetized dog. In kind it is in vivo. As for the experimental part: as §1, §2, §3, §4

Each structure is given as a SMILES string.

Turning to `COC(=O)C1=C(C)NC(C)=C(C(=O)OCCCCOc2ccc3c(c2)CCC(=O)N3)C1c1ccccc1C(F)(F)F` (centres unmarked) [Compound 25, 6-{4-[2,6-Dimethyl-5-methoxycarbonyl-4-(2-trifluoromethylphenyl)-1,4-dihydropyridin-3-carboxy]butoxy}-3,4-dihydrocarbostyril], the “Change of blood pressure” value in assay [1] (3 micrograms/kg) is on record as -9; in assay [1] (10 micrograms/kg) it was -34; in assay [1] (30 micrograms/kg) it was -46.
The term inhibition denotes how much of the control response was suppressed. Turning to `COC(=O)C1=C(C)NC(C)=C(C(=O)OCCCCOc2ccc3c(c2)CCC(=O)N3)C1c1cc(OC)c(OC)c(OC)c1` (centres unmarked) [Compound 41, 6-{4-[2,6-Dimethyl-5-methoxycarbonyl-4-(3,4,5-trimethoxyphenyl)-1,4-dihydropyridin-3-carboxy]butoxy}-3,4-dihydrocarbostyril], the inhibition at 100 µM (stock) came to 35% in assay [2] and 30% in assay [3].
On to `C#CCOc1ccc(OCCCOC(=O)C2=C(C)NC(C)=C(C(=O)OC)C2c2cccc([N+](=O)[O-])c2)c2c1NC(=O)CC2` (centres unmarked) [Compound 12, 5-{3-[2,6-Dimethyl-5-methoxycarbonyl-4-(3-nitrophenyl)-1,4-dihydropyridin-3-carboxy]-propoxy}-8-(2-propynyloxy)-3,4-dihydrocarbostyril], for which the inhibition at 100 µM (stock) in assay [3] came out at 14%. Also, the “Change of blood pressure” value is recorded as -5 in assay [1] (10 micrograms/kg), -23 in assay [1] (30 micrograms/kg) and -49 in assay [1] (100 micrograms/kg). Besides, the “Increased amount of the blood flow in coronary artery” value in assay [4] (3 micrograms/kg) worked out at 5 mL/min; in assay [4] (10 micrograms/kg), 30 mL/min; in assay [4] (30 micrograms/kg), 74 mL/min; in assay [4] (100 micrograms/kg), 63 mL/min.
As to `COC(=O)C1=C(C)NC(C)=C(C(=O)OCCCCOc2ccc3c(c2)CCC(=O)N3)C1c1ccc(OC)c(OC)c1` (centres unmarked) [Compound 40, 6-{4-[2,6-Dimethyl-5-methoxycarbonyl-4-(3,4-dimethoxyphenyl)-1,4-dihydropyridin-3-carboxy]butoxy}-3,4-dihydrocarbostyril], the inhibition at 100 µM (stock) in assay [2] worked out at 15%; in assay [3] it was 14%.
For the molecule `COC(=O)C1=C(C)NC(C)=C(C(=O)OCCOc2cccc3c2NC(=O)CC3)C1c1cccc([N+](=O)[O-])c1` (centres unmarked) [Compound 13, 8-{2-[2,6-Dimethyl-5-methoxycarbonyl-4-(3-nitrophenyl)-1,4-dihydropyridin-3-carboxy]-ethoxy}-3,4-dihydrocarbostyril], the “Change of blood pressure” value in assay [1] (3 micrograms/kg) is reported as -7; in assay [1] (10 micrograms/kg), -16; in assay [1] (30 micrograms/kg) it was -32; in assay [1] (100 micrograms/kg) it was -52.
Take `COC(=O)C1=C(C)NC(C)=C(C(=O)OCCCCOc2cccc3c2CCC(=O)N3)C1c1cccc([N+](=O)[O-])c1` (centres unmarked) [Compound 17, 5-{4-[2,6-Dimethyl-5-methoxycarbonyl-4-(3-nitrophenyl)-1,4-dihydropyridin-3-carboxy]-butoxy}-3,4-dihydrocarbostyril]: the “Change of blood pressure” value was -4 in assay [1] (10 micrograms/kg), -14 in assay [1] (30 micrograms/kg), -55 in assay [1] (100 micrograms/kg) and -76 in assay [1] (300 micrograms/kg).
Consider `COC(=O)C1=C(C)NC(C)=C(C(=O)OCC(O)COc2ccc3c(c2)CCC(=O)N3)C1c1cccc([N+](=O)[O-])c1` (centres unmarked) [Compound 39, 6-{3-[2,6-Dimethyl-5-methoxycarbonyl-4-(3-nitrophenyl)-1,4-dihydropyridin-3-carboxy]-2-hydroxypropoxy}-3,4-dihydro-carbostyril], for which the figures for the inhibition at 100 µM (stock) in assay [2] and in assay [3] were 100% and 76%, respectively. For the same molecule, the inhibition at 10 µM (stock) in assay [2] is 19%.
Consider `COC(=O)C1=C(C)NC(C)=C(C(=O)OCCCCOc2ccc3c(c2)CCC(=O)N3)C1c1ccc(Cl)cc1Cl` (centres unmarked) [Compound 42, 6-{4-[2,6-Dimethyl-5-methoxycarbonyl-4-(2,4-dichlorophenyl)-1,4-dihydropyridin-3-carboxy]butoxy}-3,4-dihydrocarbostyril], for which the inhibition at 100 µM (stock) in assay [2] was determined as 39%; in assay [3] it was 26%.
Turning to `CCCOc1ccc(OCCCOC(=O)C2=C(C)NC(C)=C(C(=O)OC)C2c2cccc([N+](=O)[O-])c2)c2c1NC(=O)CC2` (centres unmarked) [Compound 11, 5-{3-[2,6-Dimethyl-5-methoxycarbonyl-4-(3-nitrophenyl)-1,4-dihydropyridin-3-carboxy]-propoxy}-8-propoxy-3,4-dihydrocarbostyril], the inhibition at 100 µM (stock) in assay [3] turned out to be 11%. The “Change of blood pressure” value was -5 in assay [1] (3 micrograms/kg); -18 in assay [1] (10 micrograms/kg); -33 in assay [1] (30 micrograms/kg); -41 in assay [1] (100 micrograms/kg); -48 in assay [1] (300 micrograms/kg). The “Increased amount of the blood flow in coronary artery” value in assay [4] (3 micrograms/kg) worked out at 7 mL/min; in assay [4] (10 micrograms/kg) it was 26 mL/min; in assay [4] (30 micrograms/kg), 58 mL/min; in assay [4] (100 micrograms/kg), 56 mL/min; in assay [4] (300 micrograms/kg), 73 mL/min.
In the case of `COC(=O)C1=C(C)NC(C)=C(C(=O)OCC(COc2ccc3c(c2)CCC(=O)N3)OC(C)=O)C1c1cccc([N+](=O)[O-])c1` (centres unmarked) [Compound 23, 6-{3-[2,6-Dimethyl-5-methoxycarbonyl-4-(3-nitrophenyl)-1,4-dihydropyridin-3-carboxy]-2-acetoxypropoxy}-3,4-dihydrocarbostyril], the inhibition at 100 µM (stock) in assay [2] was found to be 100%; in assay [3] it was 79%. In addition, the inhibition at 10 µM (stock) in assay [2] and in assay [3] (Concentration of the test compound solution 10^-5 mole) was 29% throughout.
On to `COC(=O)C1=C(C)NC(C)=C(C(=O)OCCOc2ccc3c(c2)NC(=O)CC3)C1c1cccc([N+](=O)[O-])c1` (centres unmarked) [Compound 14, 7-{2-[2,6-Dimethyl-5-methoxycarbonyl-4-(3-nitrophenyl)-1,4,-dihydropyridin-3-carboxy]-ethoxy}-3,4-dihydrocarbostyril], for which the “Change of blood pressure” value in assay [1] (30 micrograms/kg) is listed as -2; in assay [1] (100 micrograms/kg), -14; in assay [1] (300 micrograms/kg) it was -32.
As to `COC(=O)C1=C(C)NC(C)=C(C(=O)OCCCCOc2ccc3c(c2)CCC(=O)N3)C1c1cccc([N+](=O)[O-])c1` (centres unmarked) [Compound 16, 6-{4-[2,6-Dimethyl-5-methoxycarbonyl-4-(3-nitrophenyl)-1,4-dihydropyridin-3-carboxy]-butoxy}-3,4-dihydrocarbostyril], the “Change of blood pressure” value in assay [1] (3 micrograms/kg) was -3; in assay [1] (10 micrograms/kg), -12; in assay [1] (30 micrograms/kg) it was -27; in assay [1] (300 micrograms/kg), -54.
